Test results as given in patent US20150004157A1, “OSTEOPONTIN ISOFORM A INHIBITORS AND METHODS OF USE” (NEW YORK UNIVERSITY, priority 2012, published 2015).
No end group written: not given here.

Legend:
NSCLC cell surface = NSCLC cell surface binding / competitive binding assay with fluorescent (FAM) labeled peptide; assay type: cell-based; details: for binding of fluorescently labeled peptide to the surface of the NSCLC cell lines: 100 nM FAM labeled peptide, 1 hour, FIG. 6A; for displacement of fluorescent labeled exon 4 peptide from the NSCLC cell surface by competitor: recombinant protein as competitor, 30 minutes, FIGS. 6B, 6C
Protocol: More particularly, the peptide mimic sequence was selected that contained the PDAV region, along with a scrambled sham of the same length. Peptides were constructed and fluorescent (FAM) labeled by Think peptides (Proimmune, Sarasota, Fla.). NSCLC cell surface binding was assayed by seeding ten thousand NSCLC cells per well in a 96-well plate and allowing them to sit for overnight at 37° C. The cells were treated with 100 nM of FAM labeled Exon4 and FAM labeled scrambled peptide for 1 hour and then gently washed with 0.1% BSA in PBS for three times followed by treating with recombinant Osteopontin at 1 uM, 500 nM, 250 nM, 125 nM, 62.5 nM and 31.25 nM for 30 minutes. The cells are then washed thrice with 0.1% BSA in PBS and measured the fluorescence at […].

A549 cells = experiment: Cisplatin sensitivity assay (Cell Titer Blue survival); assay type: cell-based; details: 100 nM peptide, cisplatin concentrations of 0.1-0.8 μM/ml, 48 h, FIG. 7E
Protocol: The effect of exon 4 peptide on sensitivity to cisplatin was evaluated by plating 10,000 A549 cells/well in a 96-well plate in triplicates. Five hours later, the medium was changed to DMEM containing 100 nM of exon 4 peptide, 100 nM of scrambled sham peptide, or no peptide. Fifteen minutes later, the medium was changed to DMEM containing […] of cisplatin for 48 h at 37° C. The cells were then assayed for survival by adding […] of Cell Titer Blue reagent for 1 h. The fluorescence was read at 560/590λ.

H358 = experiment: In vitro functional assays in H358 over-expressing full-length OPNa; assay type: cell-based; details: H358, addition of the exon 4 peptide
Protocol: (§1) In vitro invasion, migration, proliferation and soft agar colony formation assays were performed using the H358, A549 and H460 cell lines as previously described (Goparaju et al. “Functional Heterogeneity of Osteopontin Isoforms in Non-small Cell Lung Cancer,” J Thorac Oncol 5:1516-23 (2010), which is hereby incorporated by reference in its entirety) with 100 nM of exon 4 peptide or scrambled sham peptide in experimental medium. Experiments were performed in triplicates and comparisons of effect were made between peptide and sham within each cell line.
The effects of mutated OPN and the exon 4 peptide in H358, a NSCLC cell line with low endogenous OPN expression, were insightful. This cell line has low malignant potential; however, malignant properties are increased by over-expression of full-length OPNa, but not by over-expression of OPNc or the PDAV-deleted mutant. Further, the tumorigenic effects of full-length OPNa over-expression are abolished by addition of the exon 4 peptide in this cell line.

[1] = system: H358, A549 and H460 cell lines; experiment: In vitro invasion assay; assay type: cell-based
Protocol: as §1

[2] = system: H358, A549 and H460 cell lines; experiment: In vitro proliferation assay; assay type: cell-based
Protocol: as §1

[3] = system: EMT targets in H358, A549 and H460 cell lines; experiment: Relative expression of EMT targets by quantitative RT-PCR in peptide treated cells; assay type: cell-based
Source text: Here, mRNA was extracted from peptide treated cells and the relative expression of EMT targets evaluated by quantitative RT-PCR.

[4] = system: H358, A549 and H460 cell lines; experiment: Apoptosis assay; assay type: cell-based
[5] = molecular target: membrane-associated protein complex on NSCLC cells (un-described cell surface receptor for OPN exon 4; H358, A549 and H460 cell surface); experiment: cell-based or functional assay
[6] = H358 cells with low endogenous OPN expression

Q: Which “binding of fluorescently labeled peptide to the surface of the NSCLC cell lines” value (NSCLC cell surface) does the source give for “WQKPAPLDTDPKVYANS (Scrambled Sham Peptide) [scrambled sham control of the same length as the peptide mimic, reference compound]” here?
A: Its value is “does not”.

Q: “KYPDAVATWLNPDPSQK (also: FAM label) [exon 4 peptide]” was tested. Which “decrease in cell viability compared to untreated or scrambled peptide (cisplatin sensitivity)” value (A549 cells) did it give?
A: Its value is 2 fold.

Q: What about the “tumorigenic effects of full-length OPNa over-expression” value (H358) of the same molecule?
A: Its value is “abolished”.

Q: And the “binding of fluorescently labeled peptide to the surface of the NSCLC cell lines” value (NSCLC cell surface)?
A: Its value is “specifically binds”.

Q: What about the invasive capacity ([1]; FIG. 7D) of the same molecule?
A: The invasive capacity was “decrease”.

Q: What about the invasion [1, 6] of the same molecule?
A: The invasion was “less impact”.

Q: What about the invasion ([1]; cells with high endogenous OPN expression (A549 and H460), 100 nM peptide in media, FIGS. 7B and 7D) of the same molecule?
A: Its invasion is “decreased”.

Q: And the “impact of exogenous rOPNa on invasion” value ([1]; exon 4 peptide added to exogenous rOPNa, FIG. 7D)?
A: The value was “blocks”.

Q: What about the proliferation [2, 6] of the same molecule?
A: The proliferation was “less impact”.

Q: And the proliferation ([2]; cells with high endogenous OPN expression (A549 and H460), 100 nM peptide in media, FIG. 7A)?
A: The proliferation was “decreased”.

Q: And the “relative expression of TFGb1-r” value ([3]; A549 and H460 cell lines, FIG. 9A)?
A: Its value is “significant decrease”.

Q: And the “relative expression of N-cadherin” value ([3]; A549 and H460 cell lines, FIG. 9B)?
A: Its value is “significant decrease”.

Q: And the “relative expression of desmoplakin” value ([3]; A549 and H460 cell lines, FIG. 9C)?
A: Its value is “significant increase”.

Q: And the “relative expression of cytokeratin-20” value ([3]; A549 and H460 cell lines, FIG. 9D)?
A: The value was “significant increase”.

Q: What about the “relative expression of the same EMT markers (TFGb1-r, N-cadherin, desmoplakin, cytokeratin-20)” value ([3]; H358 cell line with low endogenous OPN) of the same molecule?
A: The value was “lesser impact”.

Q: And the apoptosis [4, 6]?
A: The apoptosis was “less impact”.

Q: What about the apoptosis ([4]; cells with high endogenous OPN expression (A549 and H460), peptide in media, FIG. 7C) of the same molecule?
A: Its apoptosis is “increased”.

Q: For “rOPNa: recombinant full-length OPN (rOPNa, R&D, Minneapolis, Minn.)”, which “displacement of fluorescent labeled exon 4 peptide from the NSCLC cell surface by competitor” value (NSCLC cell surface) is on record?
A: Its value is “displaced by molar equivalents”.

Q: And the “displacement of fluorescent labeled exon 4 peptide from the NSCLC cell surface by competitor” value (NSCLC cell surface; listed as recombinant OPN)?
A: The value was “able to compete the peptide off the cell surface”.

Q: KYPDAVATWLNPDPSQK (also: FAM label, position not given here) was tested. Which fold decrease in cell viability under cisplatin (cisplatin sensitivity, A549) [5] did it give?
A: The fold decrease in cell viability under cisplatin (cisplatin sensitivity, A549) was 2 fold.
